# Target: T1, human MetAP2 (Homo sapiens, UniProt P50579)
# T1 construct: made in house; host or cells: Sf9 insect cells (baculovirus)
# Experiment: MetAP2 enzymatic screening test (isolated enzyme, Met-Pro-Arg-pNa substrate, absorbance at 405 nm)
# Assay type: biochemical
# Details: read-out: % inhibition hMETAP2 at 100 nM
# Protocol: The compounds according to the invention underwent biochemical studies in order to determine their capacity to inhibit the enzyme methionine-aminopeptidase2 (enzymatic test on isolated enzyme).
# MetAP2 Enzymatic Screening Test
# For the enzymatic test, human MetAP2 protein was obtained from a culture supernatant of insect cells (sf9) infected with MetAP2 recombinant baculovirus.
# Before performing the experiment, dialysis of the MetAP2 supernatant is performed over 24 hours at 4° C. in a buffer (10 mM Hepes, 100 mM KCl, 10% glycerol, pH 7.4) in the presence of EDTA (1 mM) over the first 12 hours.
# The dialysis supernatant is recovered and manganese, used as cofactor, is added to a final concentration of 300 μM.
# The enzymatic test is a test in two steps.
# Consequently, the second step consists in reacting the peptides cleaved in the preceding step with a second peptidase in order to release the chromophore.
# T1 sequence (P50579 whole entry): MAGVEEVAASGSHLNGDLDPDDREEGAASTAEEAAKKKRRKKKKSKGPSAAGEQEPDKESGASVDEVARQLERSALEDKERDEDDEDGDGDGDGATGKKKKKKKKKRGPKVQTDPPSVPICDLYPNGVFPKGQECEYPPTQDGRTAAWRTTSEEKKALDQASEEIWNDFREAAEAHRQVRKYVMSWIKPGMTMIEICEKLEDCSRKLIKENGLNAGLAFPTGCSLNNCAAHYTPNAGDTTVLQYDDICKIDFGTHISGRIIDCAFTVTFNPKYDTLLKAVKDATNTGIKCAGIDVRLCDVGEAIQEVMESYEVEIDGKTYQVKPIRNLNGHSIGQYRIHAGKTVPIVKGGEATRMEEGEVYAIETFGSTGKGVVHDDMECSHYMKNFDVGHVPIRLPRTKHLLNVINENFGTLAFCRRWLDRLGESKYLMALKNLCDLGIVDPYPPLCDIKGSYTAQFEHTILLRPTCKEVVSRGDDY
row,SMILES,inhibition at 0.1 µM
1,"CC(C)NS(=O)(=O)c1ccccc1-c1ccc2c3[nH]ncc3c(=O)n(CC(F)(F)F)c2c1 [Compound 134, N-isopropyl-2-[4-oxo-5-(2,2,2-trifluoroethyl)-4,5-dihydro-1H-pyrazolo[4,3-c]quinolin-7-yl]benzenesulfonamide]",45%
2,"O=c1c2cn[nH]c2c2ccc(-c3cccc(Cl)c3O)cc2n1CC(F)(F)F [Compound 53, 7-(3-chloro-2-hydroxyphenyl)-5-(2,2,2-trifluoroethyl)-1,5-dihydro-4H-pyrazolo[4,3-c]quinolin-4-one]",43%
3,"CCc1nc(-c2ccccc2-c2ccc3c4[nH]ncc4c(=O)n(CC(F)(F)F)c3c2)no1 [Compound 150, 7-[2-(5-ethyl-[1,2,4]oxadiazol-3-yl)phenyl]-5-(2,2,2-trifluoroethyl)-1,5-dihydro-4H-pyrazolo[4,3-c]quinolin-4-one]",42%
4,"CCn1c(=O)c2cn[nH]c2c2ccc(-c3cnc(N4CCN(C)CC4)nc3)cc21 [Compound 31, 5-ethyl-7-[2-(4-methylpiperazin-1-yl)pyrimidin-5-yl]-1,5-dihydro-4H-pyrazolo[4,3-c]quinolin-4-one]",64%
5,"O=c1c2cn[nH]c2c2ccc(-c3cccc(F)n3)cc2n1CC(F)(F)F [Compound 163, 7-(6-fluoropyrid-2-yl)-5-(2,2,2-trifluoroethyl)-1,5-dihydro-4H-pyrazolo[4,3-c]quinolin-4-one]",38%
6,"CCn1c(=O)c2cn[nH]c2c2ccc(-c3ccc(N4CCNCC4)cc3)cc21 [Compound 10, 5-ethyl-7-(4-piperazin-1-ylphenyl)-1,5-dihydro-4H-pyrazolo[4,3-c]quinolin-4-one]",77%
7,"O=c1c2cn[nH]c2c2ccc(-c3ccc(F)cn3)cc2n1CC(F)(F)F [Compound 165, 7-(5-fluoropyrid-2-yl)-5-(2,2,2-trifluoroethyl)-1,5-dihydro-4H-pyrazolo[4,3-c]quinolin-4-one]",37%
8,"CCNC(=O)c1cccc(-c2ccc3c4[nH]ncc4c(=O)n(CC)c3c2)c1 [Compound 35, N-ethyl-3-(5-ethyl-4-oxo-4,5-dihydro-1H-pyrazolo[4,3-c]quinolin-7-yl)benzamide]",62%
9,"CCn1c(=O)c2cn[nH]c2c2ccc(-c3ccc(C(N)=O)c(Cl)c3)cc21 [Compound 33, 2-chloro-4-(5-ethyl-4-oxo-4,5-dihydro-1H-pyrazolo[4,3-c]quinolin-7-yl)benzamide]",62%
10,"O=c1c2cn[nH]c2c2ccc(-c3ccccc3S(=O)(=O)N3CCCC3)cc2n1CC(F)(F)F [Compound 133, 7-[2-(pyrrolidine-1-sulfonyl)phenyl]-5-(2,2,2-trifluoroethyl)-1,5-dihydro-4H-pyrazolo[4,3-c]quinolin-4-one]",45%
11,"O=c1c2cn[nH]c2c2ccc(-c3ccccc3Cn3cncn3)cc2n1CC(F)(F)F [Compound 159, 7-(2-[1,2,4]triazol-1-ylmethylphenyl)-5-(2,2,2-trifluoroethyl)-1,5-dihydro-4H-pyrazolo[4,3-c]quinolin-4-one]",40%
12,"Cc1cc(-c2ccc3c4[nH]ncc4c(=O)n(CC(F)(F)F)c3c2)cnc1-n1cnnc1 [Compound 139, 7-(5-methyl-6-[1,2,4]triazol-4-ylpyrid-3-yl)-5-(2,2,2-trifluoroethyl)-1,5-dihydro-4H-pyrazolo[4,3-c]quinolin-4-one]",44%
13,"CCn1c(=O)c2cn[nH]c2c2ccc(-c3cccc(C(=O)NCCN(C)C)c3)cc21 [Compound 37, N-(2-dimethylaminoethyl)-3-(5-ethyl-4-oxo-4,5-dihydro-1H-pyrazolo[4,3-c]quinolin-7-yl)benzamide]",60%
14,"N#Cc1cccc(-c2ccc3c4[nH]ncc4c(=O)n(CC(F)(F)F)c3c2)n1 [Compound 153, 6-[4-oxo-5-(2,2,2-trifluoroethyl)-4,5-dihydro-1H-pyrazolo[4,3-c]quinolin-7-yl]pyridine-2-carbonitrile]",41%
15,"COc1cc(-c2ccc3c4[nH]ncc4c(=O)n(CC(F)(F)F)c3c2)ccn1 [Compound 158, 7-(2-methoxypyrid-4-yl)-5-(2,2,2-trifluoroethyl)-1,5-dihydro-4H-pyrazolo[4,3-c]quinolin-4-one]",40%
16,"CCn1c(=O)c2cn[nH]c2c2ccc(-c3ccc(N4CCN(C)CC4)cc3)cc21 [Compound 11, 5-ethyl-7-[4-(4-methylpiperazin-1-yl)phenyl]-1,5-dihydro-4H-pyrazolo[4,3-c]quinolin-4-one]",76%
17,"O=c1c2cn[nH]c2c2ccc(-c3ccccc3-c3cnco3)cc2n1CC(F)(F)F [Compound 148, 7-(2-oxazol-5-ylphenyl)-5-(2,2,2-trifluoroethyl)-1,5-dihydro-4H-pyrazolo[4,3-c]quinolin-4-one]",42%

row,SMILES,inhibition at 0.1 µM
1,"O=c1c2cn[nH]c2c2ccc(-c3ccc(C(O)c4ccccc4)cn3)cc2n1CC(F)(F)F (stereo not shown) [Compound 152, 7-[5-(hydroxyphenylmethyl)pyrid-2-yl]-5-(2,2,2-trifluoroethyl)-1,5-dihydro-4H-pyrazolo[4,3-c]quinolin-4-one]",41%
2,"CCCc1ncncc1-c1ccc2c3[nH]ncc3c(=O)n(CC(F)(F)F)c2c1 [Compound 146, 7-(4-propylpyrimidin-5-yl)-5-(2,2,2-trifluoroethyl)-1,5-dihydro-4H-pyrazolo[4,3-c]quinolin-4-one]",42%
3,"Cc1cc(N)ncc1-c1ccc2c3[nH]ncc3c(=O)n(CC(F)(F)F)c2c1 [Compound 137, 7-(6-amino-4-methylpyrid-3-yl)-5-(2,2,2-trifluoroethyl)-1,5-dihydro-4H-pyrazolo[4,3-c]quinolin-4-one]",45%
4,"CCn1c(=O)c2cn[nH]c2c2ccc(-c3ccc(C(=O)N4CCOCC4)c(Cl)c3)cc21 [Compound 29, 7-[3-chloro-4-(morpholine-4-carbonyl)phenyl]-5-ethyl-1,5-dihydro-4H-pyrazolo[4,3-c]quinolin-4-one]",67%
5,"Cc1cc(-n2cnnc2)ncc1-c1ccc2c3[nH]ncc3c(=O)n(CC(F)(F)F)c2c1 [Compound 140, 7-(4-methyl-6-[1,2,4]triazol-4-ylpyrid-3-yl)-5-(2,2,2-trifluoroethyl)-1,5-dihydro-4H-pyrazolo[4,3-c]quinolin-4-one]",44%
6,"CCC(=O)Nc1ccc(-c2ccc3c4[nH]ncc4c(=O)n(CC(F)(F)F)c3c2)c(C)n1 [Compound 147, N-{6-methyl-5-[4-oxo-5-(2,2,2-trifluoroethyl)-4,5-dihydro-1H-pyrazolo[4,3-c]quinolin-7-yl]pyrid-2-yl}propionamide]",42%
7,"O=c1c2cn[nH]c2c2ccc(-c3cncnc3-c3ccccc3)cc2n1CC(F)(F)F [Compound 160, 7-(4-phenylpyrimidin-5-yl)-5-(2,2,2-trifluoroethyl)-1,5-dihydro-4H-pyrazolo[4,3-c]quinolin-4-one]",40%
8,"COC(=O)c1ccccc1-c1ccc2c3[nH]ncc3c(=O)n(CC(F)(F)F)c2c1 [Compound 156, methyl 2-[4-oxo-5-(2,2,2-trifluoroethyl)-4,5-dihydro-1H-pyrazolo[4,3-c]quinolin-7-yl]benzoate]",41%
9,"CCn1c(=O)c2cn[nH]c2c2ccc(-c3cnc(N4CCNCC4)nc3)cc21 [Compound 20, 5-ethyl-7-(2-piperazin-1-ylpyrimidin-5-yl)-1,5-dihydro-4H-pyrazolo[4,3-c]quinolin-4-one]",70%
10,"CCn1c(=O)c2cn[nH]c2c2ccc(-c3ccc(C(=O)NCCN(C)C)cc3)cc21 [Compound 13, N-(2-dimethylaminoethyl)-4-(5-ethyl-4-oxo-4,5-dihydro-1H-pyrazolo[4,3-c]quinolin-7-yl)benzamide]",75%
11,"O=c1c2cn[nH]c2c2ccc(-c3ccnc(Cl)c3F)cc2n1CC(F)(F)F [Compound 41, 7-(2-chloro-3-fluoropyrid-4-yl)-5-(2,2,2-trifluoroethyl)-1,5-dihydro-4H-pyrazolo[4,3-c]quinolin-4-one]",40%
12,"CCn1c(=O)c2cn[nH]c2c2ccc(-c3ccc(F)c(C(N)=O)c3)cc21 [Compound 36, 5-(5-ethyl-4-oxo-4,5-dihydro-1H-pyrazolo[4,3-c]quinolin-7-yl)-2-fluoro-benzamide]",61%
13,"CCn1c(=O)c2cn[nH]c2c2ccc(-c3ccc(F)c(C(=O)NC)c3)cc21 [Compound 27, 5-(5-ethyl-4-oxo-4,5-dihydro-1H-pyrazolo[4,3-c]quinolin-7-yl)-2-fluoro-N-methylbenzamide]",67%
14,"CCn1c(=O)c2cn[nH]c2c2ccc(-c3ccc(C(C)N(C)C)cc3)cc21 (stereo not shown) [Compound 15, 7-[4-(1-dimethylaminoethyl)phenyl]-5-ethyl-1,5-dihydro-4H-pyrazolo[4,3-c]quinolin-4-one]",74%
15,"Nc1ncc(F)cc1-c1ccc2c3[nH]ncc3c(=O)n(CC(F)(F)F)c2c1 [Compound 132, 7-(2-amino-5-fluoropyrid-3-yl)-5-(2,2,2-trifluoroethyl)-1,5-dihydro-4H-pyrazolo[4,3-c]quinolin-4-one]",46%
16,"Cc1cnc(F)c(-c2ccc3c4[nH]ncc4c(=O)n(CC(F)(F)F)c3c2)c1 [Compound 135, 7-(2-fluoro-5-methylpyrid-3-yl)-5-(2,2,2-trifluoroethyl)-1,5-dihydro-4H-pyrazolo[4,3-c]quinolin-4-one]",45%
17,"CCn1c(=O)c2cn[nH]c2c2ccc(-c3ccc(N)cc3C)cc21 [Compound 24, 7-(4-amino-2-methylphenyl)-5-ethyl-1,5-dihydro-4H-pyrazolo[4,3-c]quinolin-4-one]",67%
